Data published in patent publication US8580733B2, “Site-specific monoconjugated insulinotropic GLP-1 peptides” (Bio-Ker SRL, priority 2008, dated 2013).
Ends that are not written are not given here.

What was measured:
[1] = molecular target: T1, DPP-IV (Dipeptidyl peptidase IV from porcine kidney) (Sus scrofa, UniProt P22411); experiment: In vitro stability to DPP-IV digestion; type: in vitro ADME; conditions: for Degradation % at 24 h: peptide 0.1 mg/ml in PBS
T1 construct: purchased Sigma; host or cells: porcine kidney (tissue-derived)
T1 sequence (P22411 whole entry): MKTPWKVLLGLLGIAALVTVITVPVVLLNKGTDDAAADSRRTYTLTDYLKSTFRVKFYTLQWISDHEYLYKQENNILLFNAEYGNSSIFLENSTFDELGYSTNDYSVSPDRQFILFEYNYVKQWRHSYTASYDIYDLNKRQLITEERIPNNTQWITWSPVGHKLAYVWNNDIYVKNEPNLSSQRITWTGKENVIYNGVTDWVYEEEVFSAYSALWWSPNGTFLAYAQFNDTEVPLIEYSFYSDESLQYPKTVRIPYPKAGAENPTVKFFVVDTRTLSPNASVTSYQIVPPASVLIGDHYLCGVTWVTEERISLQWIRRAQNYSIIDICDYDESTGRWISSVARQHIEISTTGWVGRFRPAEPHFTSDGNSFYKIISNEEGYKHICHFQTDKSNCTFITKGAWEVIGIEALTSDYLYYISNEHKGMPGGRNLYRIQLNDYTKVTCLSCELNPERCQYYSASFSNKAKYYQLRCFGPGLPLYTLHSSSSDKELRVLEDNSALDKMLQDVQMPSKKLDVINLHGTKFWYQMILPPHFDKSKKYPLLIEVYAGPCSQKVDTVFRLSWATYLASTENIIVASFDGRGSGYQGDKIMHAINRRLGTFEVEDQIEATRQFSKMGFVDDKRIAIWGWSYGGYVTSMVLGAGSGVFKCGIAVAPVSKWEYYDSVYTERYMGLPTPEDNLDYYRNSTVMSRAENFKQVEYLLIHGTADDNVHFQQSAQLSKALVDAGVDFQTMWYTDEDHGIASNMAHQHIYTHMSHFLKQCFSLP
Procedure: The enzymatic degradation was calculated from His-Ala title of each sample, as shown for example in FIG. 1

diabetic (db/db) mice = experiment: Oral glucose tolerance test in diabetic mice; type: in vivo; conditions: for Tglu<100 mg/dl (time to lower the blood glucose level under 100 (±5) mg/dl) / Glumax (maximum blood glucose level) / HD% control (total hypoglycemic degree as percent of saline control): 100 μg/kg 30 min before oral glucose […]; for Glumax (maximum blood glucose level): first 180 min; for HD% control (total hypoglycemic degree as percent of saline control): AUC 0-180 min vs saline
Procedure: Food was withdrawn for an 18-h period prior to and for 3 hours after oral administration of a glucose solution (1.5 g/kg body weight); food was again […] 6 hours after glucose administration. 40 μg/ml of products to be tested and negative control (phosphate buffered saline) were administered by subcutaneous injection of a volume of 2.5 ml/kg body weight, 30 minutes prior glucose administration. Blood samples were collected from the tail vein of conscious mice before the injection and at 15, 30, 60, 120, 180, 240, 300, 1440 min post injection and glucose concentration was measured by gluco tester Ascensia Elite (Bayer).

Molecule	Degradation % (at 8 h) ([1]; DPP-IV 5 U/ml, 37° C., at 8 h)	inactivation by cleavage of the N-terminal dipeptide ([1]; DPP-IV, after 8 hours at 37° C.)	final biological efficacy compared with exenatide (diabetic (db/db) mice)	Tglu<100 mg/dl (time to lower the blood glucose level under 100 (±5) mg/dl) (diabetic (db/db) mice)	Glumax (maximum blood glucose level) (diabetic (db/db) mice)	HD% control (total hypoglycemic degree as percent of saline control) (diabetic (db/db) mice)	Degradation % at 24 h ([1]; DPP-IV 5 U/ml, 37° C.)
CC[C@H](C)[C@H](NC(=O)[C@H](Cc1ccccc1)NC(=O)[C@H](CCC(=O)O)NC(=O)[C@H](CCCCN)NC(=O)[C@H](C)NC(=O)[C@H](C)NC(=O)[C@H](CCC(N)=O)NC(=O)CNC(=O)[C@H](CCC(=O)O)NC(=O)[C@H](CC(C)C)NC(=O)[C@H](Cc1ccc(O)cc1)NC(=O)[C@H](CO)NC(=O)[C@H](CO)NC(=O)[C@@H](NC(=O)[C@H](CC(=O)O)NC(=O)[C@H](CO)NC(=O)[C@@H](NC(=O)[C@H](Cc1ccccc1)NC(=O)[C@@H](NC(=O)CNC(=O)[C@H](CCC(=O)O)NC(=O)[C@H](C)NC(=O)[C@@H](N)Cc1c[nH]cn1)[C@@H](C)O)[C@@H](C)O)C(C)C)C(=O)N[C@@H](C)C(=O)N[C@@H](Cc1c[nH]c2ccccc12)C(=O)N[C@@H](CC(C)C)C(=O)N[C@H](C(=O)N[C@@H](CCCCN)C(=O)NCC(=O)N[C@@H](CCCNC(=N)N)C(N)=O)C(C)C [GLP-1-amide, GLP-1(7-36)-amide, reference compound]	100 (at 8 h) %	completely inactivated					
GLP-1-amide-Q17-PEG 20 kDa: GLP-1-amide monopegylated on glutamine 17 with 20 kDa m-PEG-amine by microbial transglutaminase			comparable or better than the one displayed by exenatide	60 min	213.9 mg/dL	58.3%	37%
GLP-1-amide-Q17-PEG 30 kDa: GLP-1-amide monopegylated on glutamine 17 with 30 kDa m-PEG-amine by microbial transglutaminase			comparable or better than the one displayed by exenatide	60 min	167.7 mg/dL	63.5%	25%
GLP-1-amide-Q17N/A24Q-PEG 20 kDa: Q17N/A24Q-GLP-1-amide monopegylated on glutamine 24 with 20 kDa m-PEG-amine by microbial transglutaminase (HAEGTFTSDVSSYLEGNAAKEFIQ(PEG 20 kDa)WLVKGRG-NH2; UniProt P01275 98-128, looked up, variant Q17N A24Q)							41%
HAEGTFTSDVSSYLEGNAAKEFIQWLVKGR-NH2 [GLP-1-amide-Q17N/A24Q]							90%
